The record followed here is US8658650B2, “Substituted 1,1,3,1-tetraoxidobenzo[D][1,3,2]dithiazoles as MGLUR4 allosteric potentiators, compositions, and methods of treating neurological dysfunction” (Vanderbilt University, priority 2009, dated 2014).

Read-outs that look alike come from different tables or passages of the source.

For one series, the target named is mGluR4 (UniProt Q14833). The series can be described thus: mGluR4 potentiation assay (activity table; fluorescence plate reader, compound then EC20 agonist). As to conditions: for % GluMax: maximum extent of potentiation; for EC50: potentiation of mGluR4, species of receptor not given. It counts as cell-based. The method, then:
The disclosed compounds and compositions can be evaluated for their ability to act as a potentiator of metabotropic glutamate receptor activity, in particular mGluR4 activity, by any suitable known methodology known in the art. For example, Chinese Hamster Ovary (CHO) cells transfected with human mGluR4 or HEK cells co-transfected with rat mGluR4 and the G-protein regulated Inwardly Rectifying Potassium channel (GIRK) were plated in clear bottom assay plates for assay in a Hamamatsu FDSS Fluorometric Plate Reader. The cells were loaded with either a Ca2+-sensitive fluorescent dye Fluo-4 or the thallium responsive dye BTC, AM and the plates were washed and placed into a suitablekinetic plate reader. For human mGluR4 assays, a fluorescence baseline was established for 3-5 seconds, the disclosed compounds were then added to the cells, and the response in cells was measured. Approximately two and a half minutes later, a concentration of mGluR4 orthosteric agonist (e.g. glutamate or L-AP4) eliciting approximately 20% (EC20) of the maximal agonist response was added to the cells, and the response was measured. Two minutes later, a concentration of mGluR4 agonist (e.g. glutamate or L-AP4) eliciting 80% (EC80) of the maximal agonist response was added to the cells, and the response was measured. For rat mGluR4/GIRK experiments, a baseline was established for approximately five seconds, disclosed compounds were added, and either an EC20 or EC80 concentration of agonist was added approximately two and one half minutes later. Potentiation of the agonist response of mGluR4 by the disclosed compounds was observed as an increase in response to the EC20 concentration of agonist in the presence of compound compared to the response to agonist in the absence of compound. Similarly, antagonism of the agonist response of mGluR4 by the disclosed compounds was observed as a decrease in response to the EC80 concentration of agonist in the presence of compound compared to the response to agonist in the absence of compound.
The above described assay operated in two modes. In the first mode, a range of concentrations of the disclosed compounds are added to cells, followed by a single fixed concentration of agonist. If the compound acts as a potentiatior, an EC50 value for potentiation and a maximum extent of potentiation by the compound at this concentration of agonist is determined by non-linear curve fitting. If the compound acts as a noncompetitive antagonist, an IC50 value is determined by non-linear curve fitting. In the second mode, several fixed concentrations of the disclosed compounds are added to various wells on a plate, followed by a range in concentrations of agonist for each concentration of disclosed compound. The EC50 values for the agonist at each concentration of compound are determined by non-linear curve fitting. A decrease in the EC50 value of the agonist with increasing concentrations of the sample compound (a leftward shift of the agonist concentration-response curve) is an indication of the degree of mGluR4 potentiation at a given concentration of the sample compound. A decrease in the maximal response of the agonist with increasing concentrations of the sample compounds, with or without a rightward shift in agonist potency, is an indication of the degree of noncompetitive antagonism at mGluR4. The second mode also indicates whether the sample compounds also affect the maximum response to mGluR4 to agonists.
These compounds are positive allosteric modulators (potentiators) of human and rat mGluR4 and were selective for mGluR4 compared to the other seven subtypes of metabotropic glutamate receptors.

Series [1] can be described thus: intraperitoneal pharmacokinetics in male SD rats (plasma and brain). It counts as in vivo, rat. The conditions noted are these: 10 mg/kg ip; for AUC(0-8) Brain / AUC(0-t): 0-8 h; for Log BB: brain/plasma. More on the design: AUC(0-8) Brain: unit not given here. How it is done:
FIG. 2 is a graph showing intraperitoneal pharmacokinetics of a compound of the present invention in male SD rats (N=3); Formulation: 10% tween 80 microsuspension; Dose: 10 mg/kg; Time points: 0.5 h, 1 h, 2 h, 4 h & 8 h; data are summarized in Table 1 and Table 2.
FIG. 3 is a graph showing intraperitoneal pharmacokinetics of a compound of the present invention in male SD rats (˜300 g); Dose:10 mg/kg, ip; Time points: 0.5 h, 1 h & 8 h (n=3); data are summarized in Table 1 and Table 2.
FIG. 4 is a graph showing intraperitoneal pharmacokinetics of a compound of the present invention in male SD rats (˜300 g); Dose:10 mg/kg, ip; Time points: 0.5 h, 1 h & 8 h (n=3); data are summarized in Table 1 and Table 2.
Additionally, certain exemplary disclosed compounds were evaluated for pharmacokinetic efficacy.

Where [2] appears, read: rat, brain, read-out: Elimination T1/2 Brain (converted).
Setting [3] is: rat, brain, read-out: Tmax Brain.
Setting [4] is: rat, plasma, read-out: Elimination T1/2 Plasma (converted).
Setting [5] is: rat, plasma, read-out: Tmax Plasma.

For `O=C(Nc1ccc(N2S(=O)(=O)c3ccccc3S2(=O)=O)cc1)c1ccccc1` [Example 1, N-(4-(1,1,3,3-tetraoxidobenzo[d][1,3,2]dithiazol-2-yl)phenyl)benzamide], at mGluR4, the “% GluMax” value was found to be 146% and the half-maximal effective concentration (EC50) (in general, the concentration giving half of the maximal effect) stood at 203 nM.

For the compound `O=C(Nc1ccc(N2S(=O)(=O)c3ccccc3S2(=O)=O)cc1)c1ccco1` [Example 2, N-(4-(1,1,3,3-tetraoxidobenzo[d][1,3,2]dithiazol-2-yl)phenyl)furan-2-carboxamide], on mGluR4, the “% GluMax” value is reported as 284% and the EC50 turned out to be 50 nM.

Turning to `O=C(Nc1ccc(N2S(=O)(=O)c3ccccc3S2(=O)=O)cc1)C1CCCCC1` [Example 3, N-(4-(1,1,3,3-tetraoxidobenzo[d][1,3,2]dithiazol-2-yl)phenyl)cyclohexanecarboxamide], on mGluR4, the “% GluMax” value was 96% and the EC50 turned out to be 128 nM.

Turning to `O=C(Nc1ccc(N2S(=O)(=O)c3ccccc3S2(=O)=O)cc1)c1ccccn1` [Example 4, N-(4-(1,1,3,3-tetraoxidobenzo[d][1,3,2]dithiazol-2-yl)phenyl)picolinamide], at mGluR4, the “% GluMax” value worked out at 254% and the EC50 amounted to 38.1 nM.

`O=C(Nc1ccc(N2S(=O)(=O)c3ccccc3S2(=O)=O)cc1)c1cccc(F)n1` [Example 5, 6-Fluoro-N-(4-(1,1,3,3-tetraoxidobenzo[d][1,3,2]dithiazol-2-yl)phenyl)picolinamide]: on mGluR4, the “% GluMax” value was found to be 198% and the EC50 is 179 nM.

Take `O=C(Nc1ccc(N2S(=O)(=O)c3ccccc3S2(=O)=O)cc1)c1ccncn1` [Example 6, N-(4-(1,1,3,3-tetraoxidobenzo[d][1,3,2]dithiazol-2-yl)phenyl)pyrimidine-4-carboxamide]: at mGluR4, the “% GluMax” value amounted to 247% and the concentration for a half-maximal effect (EC50) came to 286 nM.

For the compound `O=C(Nc1ccc(N2S(=O)(=O)c3ccccc3S2(=O)=O)cc1)c1nccs1` [Example 7, N-(4-(1,1,3,3-tetraoxidobenzo[d][1,3,2]dithiazol-2-yl)phenyl)thiazole-2-carboxamide], on mGluR4, the “% GluMax” value was 216% and the EC50 was determined as 142 nM.

For the compound `O=C(Nc1ccc(N2S(=O)(=O)c3ccccc3S2(=O)=O)cc1)c1ncccc1F` [Example 8, 3-Fluoro-N-(4-(1,1,3,3-tetraoxidobenzo[d][1,3,2]dithiazol-2-yl)phenyl)picolinamide], at mGluR4, the “% GluMax” value worked out at 69% and the EC50 turned out to be 49.6 nM.

For `O=C(Nc1ccc(N2S(=O)(=O)c3ccccc3S2(=O)=O)cc1)C1CCCCO1` (centres unmarked) [Example 9, N-(4-(1,1,3,3-tetraoxidobenzo[d][1,3,2]dithiazol-2-yl)phenyl)tetrahydro-2H-pyran-2-carboxamide], on mGluR4, the “% GluMax” value was found to be 166% and the EC50 turned out to be 914 nM.

On to `O=C(Nc1ccc(N2S(=O)(=O)c3ccccc3S2(=O)=O)cc1)c1cscn1` [Example 10, N-(4-(1,1,3,3-tetraoxidobenzo[d][1,3,2]dithiazol-2-yl)phenyl)thiazole-4-carboxamide], for which, at mGluR4, the “% GluMax” value amounted to 231% and the EC50 is 68.8 nM.

With `O=C(Nc1ccc(N2S(=O)(=O)c3ccccc3S2(=O)=O)cc1)c1ncc(F)cc1F` [Example 11, 3,5-Difluoro-N-(4-(1,1,3,3-tetraoxidobenzo[d][1,3,2]dithiazol-2-yl)phenyl)picolinamide], at mGluR4, the “% GluMax” value was found to be 195% and the EC50 came to 1650 nM.

On to `O=C(Nc1ccc(N2S(=O)(=O)c3ccccc3S2(=O)=O)cc1F)c1ccco1` [Example 12, N-(2-fluoro-4-(1,1,3,3-tetraoxidobenzo[d][1,3,2]dithiazol-2-yl)phenyl)furan-2-carboxamide], for which, on mGluR4, the “% GluMax” value was 125% and the EC50 was found to be 9130 nM.

Regarding `O=C(Nc1ccc(N2S(=O)(=O)c3ccccc3S2(=O)=O)cc1F)c1ccccn1` [Example 13, N-(2-fluoro-4-(1,1,3,3-tetraoxidobenzo[d][1,3,2]dithiazol-2-yl)phenyl)picolinamide], on mGluR4, the “% GluMax” value was found to be 62% and the EC50 was determined as 739 nM.

Regarding `O=C(Nc1ccccn1)c1ccc(N2S(=O)(=O)c3ccccc3S2(=O)=O)cc1` [Example 14, N-(pyridin-2-yl)-4-(1,1,3,3-tetraoxidobenzo[d][1,3,2]dithiazol-2-yl)benzamide], at mGluR4, the “% GluMax” value amounted to 39% and the EC50 amounted to 113 nM.

Consider `O=C(Nc1ccc(F)cn1)c1ccc(N2S(=O)(=O)c3ccccc3S2(=O)=O)cc1` [Example 15, N-(5-fluoropyridin-2-yl)-4-(1,1,3,3-tetraoxidobenzo[d][1,3,2]dithiazol-2-yl)benzamide], for which, at mGluR4, the “% GluMax” value is listed as 84% and the EC50 worked out at 272 nM.

As for `O=S1(=O)c2ccccc2S(=O)(=O)N1c1ccc(NCc2ccccn2)cc1` [Example 16, 2-(4-((pyridine-2-ylmethyl)amino)phenyl)benzo[d][1,3,2]dithiazole-1,1,3,3-tetraoxide], on mGluR4, the “% GluMax” value is listed as 161% and the EC50 worked out at 2140 nM.

`O=S1(=O)c2ccccc2S(=O)(=O)N1c1ccc(NC2(c3ccccn3)CC2)cc1` [Example 17]: at mGluR4, the “% GluMax” value is on record as 165% and the EC50 was 134 nM.

For the compound `O=S1(=O)c2ccccc2S(=O)(=O)N1c1ccc(Nc2ccccn2)nc1` [Example 18, 2-(6-(pyridin-2-ylamino)pyridin-3-yl)benzo[d][1,3,2]dithiazole 1,1,3,3-tetraoxide], at mGluR4, the “% GluMax” value came out at 73% and the EC50 came to 5450 nM.

The compound `O=C(Nc1ccc(N2S(=O)(=O)c3ccccc3S2(=O)=O)cc1)C1CCCCC1` [drawing 138] showed a V/F in series [1] of 6.7 L. In addition, in series [1] (brain), the “Cmax Brain” value is listed as 983.43 ± 188.76 ng/mL or g and the “AUC(0-8) Brain” value was determined as 6295.60 ± 876.30. The half-life in series [1] (setting [2]) is 12.2 h. Further, the Tmax (usually the time from dosing to the highest level) in series [1] (setting [3]) was determined as 0.5 h. Further, in series [1] (rat), the Log BB came to 0.26. Moreover, in series [1] (rat, plasma), the Cmax – broadly, the highest concentration seen after dosing – is 1930 ± 845 ng/mL; the area under the curve AUC(0-t) (in general, exposure summed from dosing to a finite time, without extrapolation to infinity) was 3400 ± 2990 ng·h/mL; the CL/F (in general, the apparent clearance, not corrected for the fraction that reaches the circulation) came out at 46.7 mL/min/kg. Also, in series [1] (setting [4]), the half-life is 1.67 h. Also, in series [1] (setting [5]), the Tmax turned out to be 0.5 h.

On to `O=C(Nc1ccc(N2S(=O)(=O)c3ccccc3S2(=O)=O)cc1)c1ccccc1` [drawing 139], for which, in series [1], the V/F was found to be 5.2 L and the “Log BB” value is recorded as −0.9. Also, in series [1] (brain), the “Cmax Brain” value is given as 775.51 ± 90.00 ng/mL or g and the “AUC(0-8) Brain” value is 405.32 ± 98.82. In series [1] (setting [3]), the Tmax came out at 1 h. In series [1] (rat, plasma), this compound came in with a Cmax of 1470 ± 41 ng/mL, an area under the curve AUC(0-t) of 3280 ± 244 ng·h/mL and a CL/F of 51.2 mL/min/kg. Besides, the half-life in series [1] (setting [4]) is 1.21 h. Also, the Tmax in series [1] (setting [5]) is 1 h.

`O=C(Nc1ccc(N2S(=O)(=O)c3ccccc3S2(=O)=O)cc1)c1ccco1` [drawing 140]: in series [1], the V/F was 1.49 L and the “Log BB” value is given as −0.19. In series [1] (brain), the “Cmax Brain” value is given as 2842.81 ± 544.93 ng/mL or g and the “AUC(0-8) Brain” value turned out to be 12937.04 ± 2079.74. Further, the half-life in series [1] (setting [2]) is 3.79 h. In addition, the Tmax in series [1] (setting [3]) came to 1 h. Moreover, in series [1] (rat, plasma), the highest level (Cmax) was 5690 ± 1360 ng/mL, the AUC(0-t) amounted to 20500 ± 5180 ng·h/mL and the CL/F came out at 7.16 mL/min/kg. Further, the half-life in series [1] (setting [4]) is 2.39 h. The Tmax in series [1] (setting [5]) was determined as 1 h.
